Assay [1] concerns the target T1, RARα (Homo sapiens, UniProt P10276).
T1 sequence (P10276 1-462): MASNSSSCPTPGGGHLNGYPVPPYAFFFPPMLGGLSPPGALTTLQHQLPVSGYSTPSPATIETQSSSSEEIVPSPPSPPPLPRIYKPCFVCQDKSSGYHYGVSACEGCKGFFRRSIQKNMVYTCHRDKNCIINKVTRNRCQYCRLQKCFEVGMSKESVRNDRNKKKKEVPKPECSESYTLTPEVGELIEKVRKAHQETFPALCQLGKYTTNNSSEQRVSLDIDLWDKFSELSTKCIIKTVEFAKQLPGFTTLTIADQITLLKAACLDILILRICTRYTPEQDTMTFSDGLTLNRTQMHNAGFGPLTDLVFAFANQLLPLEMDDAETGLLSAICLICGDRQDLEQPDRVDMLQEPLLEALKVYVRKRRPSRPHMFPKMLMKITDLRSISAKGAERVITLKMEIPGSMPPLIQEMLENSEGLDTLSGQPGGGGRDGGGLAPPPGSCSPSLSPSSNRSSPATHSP
As to the kind of experiment: Co-transfection assay. The assay is classed as cell-based. Conditions: read-out: RARα Pot.

The target in assay [2] is T1, RARα. As to the kind of experiment: Receptor binding (competition with tritiated retinoids). Conditions: from IC50 by Cheng-Prussof equation.
The target in assay [3] is T2, RXRγ (Mus musculus, UniProt P28705).
T2 sequence (P28705 1-463): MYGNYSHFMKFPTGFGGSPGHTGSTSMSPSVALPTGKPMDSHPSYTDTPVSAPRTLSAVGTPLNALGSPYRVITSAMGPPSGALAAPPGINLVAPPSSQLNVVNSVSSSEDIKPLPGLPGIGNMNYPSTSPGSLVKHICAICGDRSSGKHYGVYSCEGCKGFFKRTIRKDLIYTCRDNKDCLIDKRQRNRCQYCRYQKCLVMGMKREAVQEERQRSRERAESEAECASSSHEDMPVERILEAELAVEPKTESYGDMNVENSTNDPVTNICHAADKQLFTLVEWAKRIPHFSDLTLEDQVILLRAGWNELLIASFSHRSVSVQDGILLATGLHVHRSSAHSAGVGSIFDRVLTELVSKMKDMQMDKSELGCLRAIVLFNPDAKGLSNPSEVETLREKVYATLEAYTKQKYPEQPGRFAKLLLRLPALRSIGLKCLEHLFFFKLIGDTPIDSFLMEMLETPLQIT
As to the kind of experiment: biochemical.

Assay [4] deals with AML-193 cell line. The experiment in a line: Viability (tetrazolium dye, MTS). Type of assay: cell-based. Conditions: Homo sapiens, 96 hours, mitochondrial function / viability.
For assay [5], the system named is ME 180 cell line. The experiment in a line: Viability (tetrazolium dye, MTS). Conditions: Homo sapiens, 96 hours, mitochondrial function / viability. The assay is classed as cell-based.
Assay [6] has as its system TPA induction of ODC. As to the kind of experiment: Ornithine decarboxylase (ODC) assay, inhibition of TPA induction of ODC. Conditions: concentration required to inhibit the TPA induction of ODC by 80 percent. Type of assay: cell-based.
The target in assay [7] is T3, RARβ (Homo sapiens, UniProt P10826).
T3 sequence (P10826 1-455): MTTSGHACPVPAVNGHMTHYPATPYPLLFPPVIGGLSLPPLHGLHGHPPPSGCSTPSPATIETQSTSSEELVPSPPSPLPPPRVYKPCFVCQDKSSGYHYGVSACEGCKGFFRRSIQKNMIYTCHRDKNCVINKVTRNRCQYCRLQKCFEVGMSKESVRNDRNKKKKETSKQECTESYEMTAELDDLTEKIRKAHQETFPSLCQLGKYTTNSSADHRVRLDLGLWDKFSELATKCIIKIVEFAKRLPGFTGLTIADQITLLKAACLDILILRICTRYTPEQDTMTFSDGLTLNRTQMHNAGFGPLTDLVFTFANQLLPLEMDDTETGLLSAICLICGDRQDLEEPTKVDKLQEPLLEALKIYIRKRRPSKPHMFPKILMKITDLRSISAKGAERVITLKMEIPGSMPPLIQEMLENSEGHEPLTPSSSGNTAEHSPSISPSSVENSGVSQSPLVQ
The experiment in a line: biochemical.

Assay [8] concerns ME 180 cell line. The experiment in a line: Incorporation of 3H-thymidine. Type of assay: cell-based. Conditions: Homo sapiens, 96 hours, radiolabeled thymidine incorporation, read-out: TdR IC50. (In general: Incorporation of labelled thymidine or its analogues reports DNA synthesis.)
For assay [9], the target named is T4, RARβ (Homo sapiens, UniProt P10826).
T4 sequence (P10826 1-448 isoform P10826-2): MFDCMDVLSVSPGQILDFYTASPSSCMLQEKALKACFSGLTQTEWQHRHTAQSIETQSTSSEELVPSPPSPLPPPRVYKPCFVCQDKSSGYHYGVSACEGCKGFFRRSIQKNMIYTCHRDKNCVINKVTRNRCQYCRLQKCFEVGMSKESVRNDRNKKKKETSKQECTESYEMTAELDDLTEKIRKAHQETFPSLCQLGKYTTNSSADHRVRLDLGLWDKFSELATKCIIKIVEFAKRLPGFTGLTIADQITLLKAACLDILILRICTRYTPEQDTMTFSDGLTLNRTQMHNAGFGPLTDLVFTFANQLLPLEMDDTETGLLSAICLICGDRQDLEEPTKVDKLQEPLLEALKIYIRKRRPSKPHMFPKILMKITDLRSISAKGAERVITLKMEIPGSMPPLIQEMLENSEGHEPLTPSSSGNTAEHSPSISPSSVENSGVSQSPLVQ
As to the kind of experiment: Co-transfection assay. Type of assay: cell-based. Conditions: read-out: RARβ Pot.

In assay [10] the test system is AML-193 cell line. The experiment in a line: Incorporation of 3H-thymidine. The note with it: Homo sapiens, 96 h, read-out: TdR IC50 (nM).
For assay [11], the target named is T5, RXRα (Homo sapiens, UniProt P19793).
T5 sequence (P19793 1-462): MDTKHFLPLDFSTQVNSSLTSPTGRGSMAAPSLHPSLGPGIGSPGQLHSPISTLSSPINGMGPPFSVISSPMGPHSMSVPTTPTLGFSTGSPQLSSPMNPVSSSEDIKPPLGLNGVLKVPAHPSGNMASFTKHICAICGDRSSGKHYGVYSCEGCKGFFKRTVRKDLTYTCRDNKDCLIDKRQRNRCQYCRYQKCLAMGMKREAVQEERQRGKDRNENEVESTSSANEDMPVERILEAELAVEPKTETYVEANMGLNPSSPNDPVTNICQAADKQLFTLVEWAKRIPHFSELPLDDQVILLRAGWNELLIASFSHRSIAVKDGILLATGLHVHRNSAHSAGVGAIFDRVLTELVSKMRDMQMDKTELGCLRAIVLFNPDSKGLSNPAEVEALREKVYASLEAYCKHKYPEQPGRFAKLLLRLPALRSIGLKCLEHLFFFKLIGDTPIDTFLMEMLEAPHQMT
As to the kind of experiment: Receptor binding (competition with tritiated retinoids). The note with it: from IC50 by Cheng-Prussof equation.

Assay [12] concerns the target T5, RXRα. The experiment in a line: Co-transfection assay. Type of assay: cell-based. Conditions: read-out: RXRα Pot.
Assay [13] deals with RPMI 8226 cell line. As to the kind of experiment: Viability (tetrazolium dye, MTS). Type of assay: cell-based. The note with it: Homo sapiens, 96 hours, mitochondrial function / viability.
Assay [14] deals with T2, RXRγ. The experiment in a line: Co-transfection assay. The note with it: read-out: RXRγ Pot. Type of assay: cell-based.
For assay [15], the system named is RPMI 8226 cell line. The experiment in a line: Incorporation of 3H-thymidine. Conditions: Homo sapiens, 96 hours, radiolabeled thymidine incorporation, read-out: TdR IC50. Type of assay: cell-based.
The target of assay [16] is T6, RXRβ (Mus musculus, UniProt P28704).
T6 sequence (P28704 1-520): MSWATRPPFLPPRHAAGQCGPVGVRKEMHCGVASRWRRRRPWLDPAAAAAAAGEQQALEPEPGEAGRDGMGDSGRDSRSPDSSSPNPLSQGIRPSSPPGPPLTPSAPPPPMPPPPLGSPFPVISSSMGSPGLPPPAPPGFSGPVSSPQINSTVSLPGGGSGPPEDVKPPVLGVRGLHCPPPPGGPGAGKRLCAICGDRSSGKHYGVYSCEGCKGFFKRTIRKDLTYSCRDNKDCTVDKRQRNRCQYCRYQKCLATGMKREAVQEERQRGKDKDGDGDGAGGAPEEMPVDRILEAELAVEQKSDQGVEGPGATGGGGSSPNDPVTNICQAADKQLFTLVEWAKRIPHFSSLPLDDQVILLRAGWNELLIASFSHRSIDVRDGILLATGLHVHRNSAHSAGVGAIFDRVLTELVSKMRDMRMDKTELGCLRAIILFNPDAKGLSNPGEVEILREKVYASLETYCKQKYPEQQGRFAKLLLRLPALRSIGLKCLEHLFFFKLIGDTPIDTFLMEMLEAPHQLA
The experiment in a line: Co-transfection assay. Type of assay: cell-based. The note with it: read-out: RXRβ Pot.

In assay [17] the target is T7, RARγ (Homo sapiens, UniProt P13631).
T7 sequence (P13631 1-454): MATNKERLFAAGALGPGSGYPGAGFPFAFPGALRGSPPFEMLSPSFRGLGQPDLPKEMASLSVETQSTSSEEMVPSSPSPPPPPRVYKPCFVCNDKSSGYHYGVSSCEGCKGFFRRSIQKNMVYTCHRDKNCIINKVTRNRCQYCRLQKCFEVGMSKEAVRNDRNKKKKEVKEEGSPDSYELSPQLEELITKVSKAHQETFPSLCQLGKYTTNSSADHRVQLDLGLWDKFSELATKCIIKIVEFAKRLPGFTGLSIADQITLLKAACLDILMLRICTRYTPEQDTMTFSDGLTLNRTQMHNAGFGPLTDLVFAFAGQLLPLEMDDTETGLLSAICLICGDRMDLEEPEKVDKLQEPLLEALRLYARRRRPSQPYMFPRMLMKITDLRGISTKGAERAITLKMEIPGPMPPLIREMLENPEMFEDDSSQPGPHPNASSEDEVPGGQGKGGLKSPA
The experiment in a line: Co-transfection assay. Type of assay: cell-based. The note with it: read-out: RARγ Pot.

Read-outs that look alike come from different tables or passages of the source.

The Kd is the equilibrium constant for the complex coming apart. High values mean weaker binding, low ones tighter binding. For orientation: IC50 means the point on the concentration scale where inhibition reaches its midpoint. The term IC80 denotes the concentration at which the effect reaches the 80% level. Low readings indicate an effect from little substance, high ones a need for much substance.

Consider `C/C(=C/C=C/C(C)=C/C(=O)O)c1cc(C(C)(C)C)cc(C(C)(C)C)c1` [Compound 10, (2E, 4E, 6Z)-7-(3,5-di-t-butylphenyl)-3-methylocta-2,4,6-trienoic acid], for which the EC50 in assay [1] was 59 nM; in [9] it was 23 nM; in [12], 127 nM; in assay [14], 56 nM. The dissociation constant (Kd) worked out at 59 nM in assay [2], 9 nM in assay [3], 75 nM in assay [7] and 4 nM in [11]. Also, the IC50 was found to be 1000 nM in assay [4]; 370 nM in [5]; 62 nM in [8]; 0.01 nM in [10]; 570 nM in [13]; 60 nM in assay [15]. For the same compound, the IC80 in assay [6] was 6.62 nM.

Turning to `COc1ccc(/C(C)=C/C=C/C(C)=C/C(=O)O)cc1OC` [A, (2E,4E,6E)-3-methyl-7-(3,4-dimethoxyphenyl)octa-2,4,6-trienoic acid, reference compound], the EC50 was more than 10000 nM in assay [1]; more than 10000 nM in assay [16]; more than 10000 nM in [17]; 1480 nM in [9]; more than 10000 nM in assay [12]; more than 10000 nM in assay [14]. The compound also returned a Kd in assay [2] of 312 nM.

Regarding `C/C(=C\c1ccc(C(=O)O)cc1)c1ccc2c(c1)C(C)(C)CCC2(C)C` [TTNPB, (E)-4-[2-(5,6,7,8-tetrahydro-5,5,8,8-tetramethyl-2-napthalenyl)-1-propenyl]benzoic acid, reference compound], the IC50 in [4] was 1000 nM; in [5] it was 187 nM; in assay [8], 0.4 nM; in [10], 0.1 nM; in assay [13], 10 nM; in assay [15] it was 0.2 nM. The compound further had an IC80 in [6] of 0.09 nM.

Consider `CC(/C=C/C=C(\C)c1cc(C(C)(C)C)cc(C(C)(C)C)c1)=C\C(=O)O` [Compound 9, (2E, 4E, 6E)-7-(3,5-Di-t-butylphenyl)-3-methylocta-2,4,6-trienoic acid], for which the EC50 is 4 nM in assay [1] (CV-1 cells, pRShRARα, D-MTV-LUC reporter, 40 hours, potency = EC50); 1 nM in [9]; more than 10000 nM in assay [12]; more than 10000 nM in [14]. Moreover, the Kd in assay [2] amounted to 1 nM; in assay [3] it was 496 nM; in assay [7], 2 nM; in [11] it was 270 nM. For the same compound, the 50% inhibitory concentration (IC50) was 1000 nM in [4]; 1.3 nM in [5]; 0.1 nM in assay [8]; 0.1 nM in [10]; 253 nM in assay [13]; 0.3 nM in assay [15]. The same compound displayed an IC80 in assay [6] of 0.93 nM.

The values are drawn from patent publication EP0800503B1, “NOVEL TRIENOIC RETINOID COMPOUNDS AND METHODS” (LIGAND PHARMACEUTICALS, INC., priority 1994, dated 1996).
